The text below walks through data of patent US12410171B2, “Tropomyosin receptor kinase (TRK) degradation compounds and methods of use” (Cullgen (Shanghai), Inc., priority 2020, dated 2025).

For one test, the target named is T1, TPM3-TRKA fusion protein (Homo sapiens, UniProt P04629).
T1 construct: The resulted chimeric proteins always retain the kinase domain of TRK proteins; TPM3 (fusion partner, N-terminal part of tropomyosin alpha-3, P06753); endogenous in cells; host or cells: KM12 colon cancer cells; the other entry of the earlier key: TPM3 (P06753, Tropomyosin alpha-3 chain)
Kind of test: TPM3-TRKA fusion protein levels in KM12 cells (Western blot). Type of test: cell-based. The following applies: read-out: Degradation (at 10 nM). In a few lines: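 TPM3-TRKA levels were assessed by Western blot with chemiluminescent detection and band densitometry, after SDS-PAGE of BCA-normalized RIPA lysates. Before lysis, KM12 cells received DMSO, compounds or matched control compounds at concentrations including 0.1, 1, 10 and 100 nM and 0.4–30 nM. Exposures lasted 4 h, 8–16 h or 16 h.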
On the technique in general: Immunoblotting shows a protein as a band on a membrane.

The subject of another test is KM12 cells. Kind of test: KM12 cell viability (CellTiter-Glo). Type of test: cell-based. The following applies: Homo sapiens. In a few lines: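 Three-day exposure of KM12 cells (5000/well, RPMI 1640 with 10% FBS, 37 °C, 5% CO2) to compound dilution series, 3-fold over 8 or 11 points (top 1000 nM in the 8-point format) or 2-fold over 12. CellTiter-Glo readout, with IC50 fitted by nonlinear least-squares regression.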

[1] abbreviates: 16 h, TPM3-TRKA degradation in KM12 cells at 10 nM compound, category of percentage degradation.
The mark [2] stands for this setting: 72 h, KM12 cell viability, CellTiter-Glo, three days treatment, read-out: IC50.

Where two headings read alike, the source gives them in different places.

T1 sequence (P04629 with tags, fused parts or gaps): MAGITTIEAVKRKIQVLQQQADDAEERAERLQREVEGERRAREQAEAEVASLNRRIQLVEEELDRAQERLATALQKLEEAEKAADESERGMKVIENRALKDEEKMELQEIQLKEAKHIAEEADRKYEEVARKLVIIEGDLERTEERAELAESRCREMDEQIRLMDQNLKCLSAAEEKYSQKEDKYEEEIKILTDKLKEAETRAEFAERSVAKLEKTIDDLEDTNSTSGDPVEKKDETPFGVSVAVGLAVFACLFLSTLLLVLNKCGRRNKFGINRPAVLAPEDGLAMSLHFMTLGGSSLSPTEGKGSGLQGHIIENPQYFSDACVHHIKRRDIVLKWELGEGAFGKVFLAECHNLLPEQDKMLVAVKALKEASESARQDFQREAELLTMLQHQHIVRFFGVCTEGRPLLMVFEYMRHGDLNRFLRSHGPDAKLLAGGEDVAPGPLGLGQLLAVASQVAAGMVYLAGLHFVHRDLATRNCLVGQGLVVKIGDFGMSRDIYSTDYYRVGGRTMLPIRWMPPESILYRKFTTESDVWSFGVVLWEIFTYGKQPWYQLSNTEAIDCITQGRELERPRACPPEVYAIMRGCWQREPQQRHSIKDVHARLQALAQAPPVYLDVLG

On to `Cn1c(=O)n(C2CCC(=O)NC2=O)c2ccc(NCCCN3CCN(c4ccc(C(=O)Nc5n[nH]c6ccc(Cc7cc(F)cc(F)c7)cc56)c(NC5CCOCC5)c4)CC3)cc21` (centres unmarked) [TR-316, N-(5-(3,5-difluorobenzyl)-1H-indazol-3-yl)-4-(4-(3-((1-(2,6-dioxopiperidin-3-yl)-3-methyl-2-oxo-2,3-dihydro-1H-benzo[d]imidazol-5-yl)amino)propyl)piperazin-1-yl)-2-((tetrahydro-2H-pyran-4-yl)amino)benzamide], for which, at TPM3-TRKA fusion protein (setting [1]), the percent degradation of TPM3-TRKA protein at 0.01 µM is > 80%. In addition, in the test with KM12 cells (setting [2]), the IC50 was determined as 2.3 nM.

With `O=C1CCC(N2Cc3ccc(N4CC(CN5CCN(c6cccc(-c7cnc8ccc(N9CCC[C@@H]9c9cccc(F)c9)nn78)n6)CC5)C4)cc3C2=O)C(=O)N1` (stereo partly drawn) [TR-317, 3-(6-(3-((4-(6-(6-((R)-2-(3-fluorophenyl)pyrrolidin-1-yl)imidazo[1,2-b]pyridazin-3-yl)pyridin-2-yl)piperazin-1-yl)methyl)azetidin-1-yl)-1-oxoisoindolin-2-yl)piperidine-2,6-dione], the percent degradation of TPM3-TRKA protein at 0.01 µM on TPM3-TRKA fusion protein (setting [1]) is > 80%. Moreover, the IC50 in the test on KM12 cells (setting [2]) turned out to be 5 nM.

Consider `O=C1CCC(N2Cc3ccc(N4CC(CN5CCN(c6ccc(C(=O)Nc7n[nH]c8ccc(Cc9cc(F)cc(F)c9)cc78)c(NC7CCOCC7)c6)CC5)C4)cc3C2=O)C(=O)N1` (centres unmarked) [TR-318, N-(5-(3,5-difluorobenzyl)-1H-indazol-3-yl)-4-(4-((1-(2-(2,6-dioxopiperidin-3-yl)-3-oxoisoindolin-5-yl)azetidin-3-yl)methyl)piperazin-1-yl)-2-((tetrahydro-2H-pyran-4-yl)amino)benzamide], for which the percent degradation of TPM3-TRKA protein at 0.01 µM at TPM3-TRKA fusion protein (setting [1]) was > 80%. For the same compound, in the test on KM12 cells (setting [2]), the IC50 is 2.4 nM.

As to `Cn1c(=O)n(C2CCC(=O)NC2=O)c2ccc(C#CCCN3CCN(c4ccc(C(=O)Nc5n[nH]c6ccc(Cc7cc(F)cc(F)c7)cc56)c(NC5CCOCC5)c4)CC3)cc21` (centres unmarked) [TR-319, N-(5-(3,5-difluorobenzyl)-1H-indazol-3-yl)-4-(4-(4-(1-(2,6-dioxopiperidin-3-yl)-3-methyl-2-oxo-2,3-dihydro-1H-benzo[d]imidazol-5-yl)but-3-yn-1-yl)piperazin-1-yl)-2-((tetrahydro-2H-pyran-4-yl)amino)benzamide], on TPM3-TRKA fusion protein (setting [1]), the percent degradation of TPM3-TRKA protein at 0.01 µM is > 80%. Further, the 50% inhibitory concentration (IC50) in the test on KM12 cells (setting [2]) turned out to be 5.7 nM.

As for `Cn1c(=O)n(C2CCC(=O)NC2=O)c2ccc(CCCCN3CCN(c4ccc(C(=O)Nc5n[nH]c6ccc(Cc7cc(F)cc(F)c7)cc56)c(NC5CCOCC5)c4)CC3)cc21` (stereo not drawn) [TR-320, N—(S-(3,5-difluorobenzyl)-1H-indazol-3-yl)-4-(4-(4-(1-(2,6-dioxopiperidin-3-yl)-3-methyl-2-oxo-2,3-dihydro-1H-benzo[d]imidazol-5-yl)butyl)piperazin-1-yl)-2-((tetrahydro-2H-pyran-4-yl)amino)benzamide], the percent degradation of TPM3-TRKA protein at 0.01 µM on TPM3-TRKA fusion protein (setting [1]) is > 80%. Besides, in the test on KM12 cells (setting [2]), the 50% inhibitory concentration (IC50) was found to be 1.4 nM.

As for `Cn1c(=O)n(C2CCC(=O)NC2=O)c2ccc(N3CC(CN4CCN(c5ccc(C(=O)Nc6n[nH]c7ccc(Cc8cc(F)cc(F)c8)cc67)c(NC6CCOCC6)c5)CC4)C3)cc21` (centres unmarked) [TR-321, N-(5-(3,5-difluorobenzyl)-1H-indazol-3-yl)-4-(4-((1-(1-(2,6-dioxopiperidin-3-yl)-3-methyl-2-oxo-2,3-dihydro-1H-benzo[d]imidazol-5-yl)azetidin-3-yl)methyl)piperazin-1-yl)-2-((tetrahydro-2H-pyran-4-yl)amino)benzamide], the percent degradation of TPM3-TRKA protein at 0.01 µM at TPM3-TRKA fusion protein (setting [1]) is > 80%. Moreover, the IC50 with KM12 cells (setting [2]) was found to be 2.3 nM.

On to `Cn1c(=O)n(C2CCC(=O)NC2=O)c2cccc(OCCN3CCN(c4ccc(C(=O)Nc5n[nH]c6ccc(Cc7cc(F)cc(F)c7)cc56)c(NC5CCOCC5)c4)CC3)c21` (centres unmarked) [TR-322, N-(5-(3,5˜Difluorobenzyl)-1H-indazol-3-yl)-4-(4-(2-((1-(2,6-dioxopiperidin-3-yl)-3-methyl-2-oxo-2,3-dihydro-1H-benzo[d]imidazol-4-yl)oxy)ethyl)piperazin-1-yl)-2-((tetrahydro-2H-pyran˜4-yl)amino)benzamide], for which the percent degradation of TPM3-TRKA protein at 0.01 µM on TPM3-TRKA fusion protein (KM12, 16 h) was < 50%. The compound also displayed a half-inhibitory concentration (IC50) with KM12 cells (KM12, 72 h) of 168 nM.

In general, IC50 refers to the point on the concentration scale where inhibition reaches its midpoint.
